This note sets out measurements from ChEMBL document CHEMBL1132083, “Switching androgen receptor antagonists to agonists by modifying C-ring substituents on piperidino[3,2-g]quinolinone” (Bioorg Med Chem Lett, 1999).

Experiment [1] concerns the target T1, Androgen receptor (Homo sapiens, UniProt P10275).
T1 sequence (P10275 whole entry): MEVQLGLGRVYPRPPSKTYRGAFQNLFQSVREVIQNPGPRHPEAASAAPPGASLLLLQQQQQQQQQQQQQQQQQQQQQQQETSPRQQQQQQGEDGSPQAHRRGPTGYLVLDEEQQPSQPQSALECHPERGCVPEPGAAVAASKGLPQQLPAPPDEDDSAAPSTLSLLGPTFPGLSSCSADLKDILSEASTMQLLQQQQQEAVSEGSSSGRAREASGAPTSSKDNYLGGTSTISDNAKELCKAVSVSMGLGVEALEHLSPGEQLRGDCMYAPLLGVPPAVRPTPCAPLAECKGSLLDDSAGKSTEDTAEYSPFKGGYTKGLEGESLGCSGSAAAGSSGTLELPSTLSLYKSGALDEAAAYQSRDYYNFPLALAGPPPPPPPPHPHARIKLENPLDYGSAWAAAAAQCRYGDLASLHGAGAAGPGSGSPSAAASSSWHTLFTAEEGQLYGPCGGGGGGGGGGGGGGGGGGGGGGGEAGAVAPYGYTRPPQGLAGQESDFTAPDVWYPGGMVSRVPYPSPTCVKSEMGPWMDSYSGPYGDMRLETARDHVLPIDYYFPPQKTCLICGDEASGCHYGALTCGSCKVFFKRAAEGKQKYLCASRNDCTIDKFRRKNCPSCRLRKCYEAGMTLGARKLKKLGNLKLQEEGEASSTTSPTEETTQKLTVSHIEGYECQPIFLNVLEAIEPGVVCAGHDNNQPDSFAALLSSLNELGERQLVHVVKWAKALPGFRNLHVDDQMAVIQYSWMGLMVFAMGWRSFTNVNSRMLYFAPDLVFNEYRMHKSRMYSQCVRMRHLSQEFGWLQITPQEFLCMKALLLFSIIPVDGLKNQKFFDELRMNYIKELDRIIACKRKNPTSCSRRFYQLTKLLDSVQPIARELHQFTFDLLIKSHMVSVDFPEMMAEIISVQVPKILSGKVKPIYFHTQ
The note with it: cv-1.
Description: (§1) Agonistic activity against human androgen receptor (hAR) expressed in CV-1 cell lines

Experiment [2] concerns the target T1, Androgen receptor.
Description: (§2) Antagonistic activity against human androgen receptor (hAR) expressed in CV-1 cell lines
The target in experiment [3] is T1, Androgen receptor. This is another data set of the same source.
Description: Binding affinity towards human androgen receptor (hAR), using dihydrotestosterone as radioligand for competitive binding assay
The target in experiment [4] is T1, Androgen receptor. The experiment can be described thus: Antagonistic activity against human androgen receptor (hAR) expressed in CV-1 cells; no data. It counts as functional, cell-based.
Experiment [5] addresses T1, Androgen receptor. This is another data set of the same source.
Description: as §1
Experiment [6] concerns the target T2, Androgen receptor (Homo sapiens) (UniProt P10275).
T2 sequence (whole entry): T1 sequence (P10275 whole entry)
The experiment can be described thus: Antagonistic activity against human androgen receptor (hAR); no data. It counts as functional.

The target of experiment [7] is T1, Androgen receptor. The note with it: cv-1. The source holds these as a separate data set.
Description: as §2

pEC50, pIC50, pKi: −log10 of the molar value.

By pEC50 is commonly meant the EC50 on a negative log10 scale, so that one unit is a factor of ten. A low value points to a high EC50. For orientation: pIC50 means the negative decadic logarithm of the IC50, by convention in mol/L. Read a high pIC50 as a small IC50. For orientation: pKi means the negative decadic logarithm of the Ki, by convention in mol/L. A low value points to a high Ki. For the molecule `C[C@H]1Nc2cc3nc(O)cc(C(F)(F)F)c3cc2CC1(C)C`, on Androgen receptor [1], the pEC50 is over 5.00. Besides, the negative-log IC50 (pIC50) against Androgen receptor [2] is 7.62. Further, on Androgen receptor [3], the negative logarithm of the Ki (pKi) is 7.09.
With `CC[C@H]1C[C@@H](C)Nc2cc3nc(O)cc(C(F)(F)F)c3cc21`, on Androgen receptor [4], the pIC50 was over 5.00. The same molecule showed a pEC50 at Androgen receptor [5] of 7.18. In experiment [6], this molecule gave an Efficacy of under 20%. The molecule also showed a negative-log Ki (pKi) on Androgen receptor [3] of 7.64.
On to `CC[C@H]1Nc2cc3[nH]c(=O)cc(C(F)(F)F)c3cc2C[C@@H]1C`, for which, on Androgen receptor [2], the negative-log IC50 (pIC50) is 7.96. Also, the pEC50 on Androgen receptor [5] is 5.78. The pKi on Androgen receptor [3] was 7.92.
Turning to `CCC[C@@H]1CCc2cc3c(C(F)(F)F)cc(O)nc3cc2N1`, the negative logarithm of the EC50 (pEC50) at Androgen receptor [1] is over 5.00. Also, at Androgen receptor [2], the negative-log IC50 (pIC50) is 7.49. Also, the pKi at Androgen receptor [3] is 7.62.
`CC[C@H]1Nc2cc3nc(O)cc(C(F)(F)F)c3cc2C[C@H]1C` gave a pIC50 at Androgen receptor [2] of 7.82. In addition, at Androgen receptor [5], the pEC50 is 5.61. Further, at Androgen receptor [3], the pKi was 7.96.
For the molecule `C[C@H]1Cc2cc3c(C(F)(F)F)cc(O)nc3cc2N[C@@H]1C`, the pEC50 on Androgen receptor [1] is over 5.00. Besides, the pIC50 against Androgen receptor [2] was 7.48. At Androgen receptor [3], this molecule had a pKi of 7.66.
Molecule `CC[C@@H]1C[C@H](CC)c2cc3c(C(F)(F)F)cc(O)nc3cc2N1` had a pIC50 at Androgen receptor [4] of over 5.00. Further, at Androgen receptor [5], the pEC50 was 7.49. This molecule also gave an Efficacy in experiment [6] of under 20%. This molecule also showed a pKi at Androgen receptor [3] of 8.05.
`C[C@@H]1C[C@H](C)c2cc3c(C(F)(F)F)cc(O)nc3cc2N1` had a pIC50 against Androgen receptor [2] of 7.82. Further, the pEC50 on Androgen receptor [5] is 7.23. This molecule had a negative logarithm of the Ki (pKi) at Androgen receptor [3] of 8.22.
As for `CC[C@H]1Cc2cc3c(C(F)(F)F)cc(=O)[nH]c3cc2N[C@@H]1CC`, the negative-log IC50 (pIC50) at Androgen receptor [7] was over 5.00. At Androgen receptor [5], this molecule had a pEC50 of 8.52. The pKi at Androgen receptor [3] is 7.80.
On to `C[C@@H]1CCc2cc3c(C(F)(F)F)cc(=O)[nH]c3cc2N1`, for which the pIC50 against Androgen receptor [2] is 7.72. This molecule also had a negative logarithm of the EC50 (pEC50) on Androgen receptor [5] of 7.68. This molecule also gave a pKi at Androgen receptor [3] of 8.15.
`CC[C@H]1Cc2cc3c(C(F)(F)F)cc(O)nc3cc2N[C@@H]1C` gave a pIC50 against Androgen receptor [7] of over 5.00. The same molecule showed a pEC50 at Androgen receptor [5] of 8.05. For the same molecule, the pKi on Androgen receptor [3] is 7.96.
Molecule `CC(C)(O)C(=O)Nc1ccc([N+](=O)[O-])c(C(F)(F)F)c1O` had a pEC50 on Androgen receptor [1] of over 5.00. At Androgen receptor [2], this molecule had a pIC50 of 7.82. In addition, at Androgen receptor [3], the pKi was 7.57.
At Androgen receptor [1], `CC[C@@H]1CCc2cc3c(C(F)(F)F)cc(O)nc3cc2N1` gave a pEC50 of over 5.00. Further, the pIC50 against Androgen receptor [2] is 7.96.
`CC[C@H]1Nc2cc3nc(O)cc(C(F)(F)F)c3cc2CC1(CC)CC` showed a pEC50 on Androgen receptor [1] of over 5.00. Besides, the pIC50 against Androgen receptor [2] was 7.32. The pKi on Androgen receptor [3] was 7.38.
`CC[C@@H]1Cc2cc3c(C(F)(F)F)cc(=O)[nH]c3cc2N[C@@H]1CC`: on Androgen receptor [7], the pIC50 was over 5.00. The pEC50 at Androgen receptor [5] is 7.70. The molecule further gave a pKi on Androgen receptor [3] of 7.54.
`CC(C)[C@@H]1CCc2cc3c(C(F)(F)F)cc(=O)[nH]c3cc2N1` showed a pEC50 on Androgen receptor [1] of over 5.00. At Androgen receptor [2], the pIC50 is 7.60. This molecule had a pKi at Androgen receptor [3] of 6.96.
Consider `C[C@@H]1Cc2cc3c(C(F)(F)F)cc(O)nc3cc2N[C@@H]1C`, for which, on Androgen receptor [2], the pIC50 is 7.13. Moreover, the pEC50 at Androgen receptor [5] was 7.47. On Androgen receptor [3], this molecule had a pKi of 7.82.
In the case of `CC[C@@H]1C[C@H](C)c2cc3c(C(F)(F)F)cc(O)nc3cc2N1`, on Androgen receptor [2], the pIC50 is 6.86. In addition, the pEC50 on Androgen receptor [5] is 6.92. This molecule also gave a pKi on Androgen receptor [3] of 7.68.
For `CC[C@H]1Nc2cc3[nH]c(=O)cc(C(F)(F)F)c3cc2CC1(C)C`, on Androgen receptor [1], the negative logarithm of the EC50 (pEC50) was over 5.00. The molecule also had a negative logarithm of the IC50 (pIC50) on Androgen receptor [2] of 7.38. The pKi at Androgen receptor [3] was 7.30.
On Androgen receptor [7], `CC[C@@H]1Cc2cc3c(C(F)(F)F)cc(=O)[nH]c3cc2N[C@@H]1C` showed a negative-log IC50 (pIC50) of over 5.00. At Androgen receptor [5], this molecule gave a pEC50 of 8.00. This molecule also showed a pKi on Androgen receptor [3] of 7.82.
